Read-outs that look alike come from different tables or passages of the source.
How the values were obtained:
Assay type in all cases: biochemical
MERTK = target: T1, MERTK (Homo sapiens, UniProt Q12866); assay: Kinase assay at Km ATP (Eurofins Discovery), Mer; conditions: for IC50: Km ATP
T1 sequence (Q12866 21-999): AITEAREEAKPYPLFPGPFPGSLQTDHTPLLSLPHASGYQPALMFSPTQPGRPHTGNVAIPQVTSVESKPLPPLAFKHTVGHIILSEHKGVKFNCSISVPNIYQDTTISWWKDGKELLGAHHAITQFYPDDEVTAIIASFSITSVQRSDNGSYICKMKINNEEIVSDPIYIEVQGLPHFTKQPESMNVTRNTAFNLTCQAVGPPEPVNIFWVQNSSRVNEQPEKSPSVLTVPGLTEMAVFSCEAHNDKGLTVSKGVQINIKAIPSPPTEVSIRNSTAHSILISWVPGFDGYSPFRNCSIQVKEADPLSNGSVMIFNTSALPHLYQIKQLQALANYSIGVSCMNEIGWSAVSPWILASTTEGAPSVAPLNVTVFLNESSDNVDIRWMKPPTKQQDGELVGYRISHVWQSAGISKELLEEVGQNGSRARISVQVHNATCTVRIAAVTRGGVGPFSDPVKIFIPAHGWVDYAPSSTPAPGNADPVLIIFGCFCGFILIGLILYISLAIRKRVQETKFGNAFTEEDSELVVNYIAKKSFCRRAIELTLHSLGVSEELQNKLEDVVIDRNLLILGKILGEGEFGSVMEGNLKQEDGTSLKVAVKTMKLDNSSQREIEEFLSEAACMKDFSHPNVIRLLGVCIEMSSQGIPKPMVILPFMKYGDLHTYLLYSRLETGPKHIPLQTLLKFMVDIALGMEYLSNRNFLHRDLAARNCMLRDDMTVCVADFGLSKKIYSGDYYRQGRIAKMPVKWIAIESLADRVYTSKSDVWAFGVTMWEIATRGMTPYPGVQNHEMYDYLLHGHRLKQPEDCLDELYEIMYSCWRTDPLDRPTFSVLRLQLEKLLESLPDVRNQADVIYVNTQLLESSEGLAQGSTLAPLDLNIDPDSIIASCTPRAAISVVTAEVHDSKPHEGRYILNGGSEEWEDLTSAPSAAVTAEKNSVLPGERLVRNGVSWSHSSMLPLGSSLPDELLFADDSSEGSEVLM
Procedure: (§1) All kinase assays were carried out at Km ATP by Eurofins Discovery's Kinase Screening and Profiling services (France).

AXL = target: T2, AXL (Homo sapiens, UniProt P30530); assay: Kinase assay at Km ATP (Eurofins Discovery), Axl; conditions: for IC50: Km ATP
T2 sequence (P30530 26-894): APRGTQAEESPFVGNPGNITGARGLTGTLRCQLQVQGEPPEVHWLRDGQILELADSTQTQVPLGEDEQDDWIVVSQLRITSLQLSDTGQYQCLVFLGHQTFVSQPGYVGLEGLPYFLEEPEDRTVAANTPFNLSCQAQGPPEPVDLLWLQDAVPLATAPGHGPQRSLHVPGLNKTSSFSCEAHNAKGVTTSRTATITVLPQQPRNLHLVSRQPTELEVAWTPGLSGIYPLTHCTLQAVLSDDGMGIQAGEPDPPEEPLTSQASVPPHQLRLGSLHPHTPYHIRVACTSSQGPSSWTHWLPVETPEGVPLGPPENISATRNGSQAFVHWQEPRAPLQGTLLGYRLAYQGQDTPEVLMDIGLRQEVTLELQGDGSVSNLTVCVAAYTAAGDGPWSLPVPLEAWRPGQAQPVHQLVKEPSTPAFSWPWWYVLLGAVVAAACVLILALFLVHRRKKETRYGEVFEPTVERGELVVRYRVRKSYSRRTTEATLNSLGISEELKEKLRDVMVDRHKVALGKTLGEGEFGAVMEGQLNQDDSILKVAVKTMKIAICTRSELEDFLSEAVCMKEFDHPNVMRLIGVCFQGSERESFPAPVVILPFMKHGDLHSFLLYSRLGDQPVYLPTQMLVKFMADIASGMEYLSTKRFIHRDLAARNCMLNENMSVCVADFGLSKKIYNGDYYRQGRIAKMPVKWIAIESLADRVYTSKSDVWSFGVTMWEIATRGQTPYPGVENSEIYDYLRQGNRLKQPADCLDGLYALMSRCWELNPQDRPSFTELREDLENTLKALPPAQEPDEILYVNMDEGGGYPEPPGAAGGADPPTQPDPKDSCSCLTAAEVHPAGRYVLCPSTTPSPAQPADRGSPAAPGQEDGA
Procedure: as §1

TYRO3 = target: T3, TYRO3 (Homo sapiens, UniProt Q06418); assay: Kinase assay at Km ATP (Eurofins Discovery), Tyro3
T3 sequence (Q06418 41-890): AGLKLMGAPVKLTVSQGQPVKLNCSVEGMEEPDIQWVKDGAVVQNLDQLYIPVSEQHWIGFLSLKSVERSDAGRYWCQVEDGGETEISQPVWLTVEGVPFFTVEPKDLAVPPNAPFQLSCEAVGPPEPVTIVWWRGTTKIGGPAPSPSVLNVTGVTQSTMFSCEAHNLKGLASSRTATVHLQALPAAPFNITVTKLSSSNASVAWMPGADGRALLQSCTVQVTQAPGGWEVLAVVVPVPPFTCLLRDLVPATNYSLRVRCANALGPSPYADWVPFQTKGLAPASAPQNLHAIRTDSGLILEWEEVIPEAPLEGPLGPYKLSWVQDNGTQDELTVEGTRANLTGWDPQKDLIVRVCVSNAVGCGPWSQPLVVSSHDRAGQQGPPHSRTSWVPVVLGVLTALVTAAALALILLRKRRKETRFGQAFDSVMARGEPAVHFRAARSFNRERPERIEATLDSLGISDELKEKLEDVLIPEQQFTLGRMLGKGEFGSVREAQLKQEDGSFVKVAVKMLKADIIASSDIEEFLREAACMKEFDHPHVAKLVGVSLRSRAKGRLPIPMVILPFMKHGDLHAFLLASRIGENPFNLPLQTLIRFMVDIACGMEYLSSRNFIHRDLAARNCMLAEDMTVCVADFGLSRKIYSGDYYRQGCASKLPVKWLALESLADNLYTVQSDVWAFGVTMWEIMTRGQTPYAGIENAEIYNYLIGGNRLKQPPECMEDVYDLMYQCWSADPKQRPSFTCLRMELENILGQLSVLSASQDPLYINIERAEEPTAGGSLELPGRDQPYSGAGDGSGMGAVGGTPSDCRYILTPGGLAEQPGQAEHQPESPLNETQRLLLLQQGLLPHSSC
Procedure: as §1

[1] = Table 2, read-out: IC50 (nM) MER
[2] = Table 1, mean values, read-out: IC50 (nM) MERTK
[3] = Table 3, read-out: IC50 (nM) MER

| SMILES | IC50 (MERTK; [1]) | IC50 (AXL; Table 2) | inhibition at 1 µM (TYRO3) | other results |
| --- | --- | --- | --- | --- |
| COc1ccc(-n2ccc3cnc(Nc4cc(OC)cc(N5CCN(C6COC6)CC5)c4)nc32)cc1 [Compound 30, N-(3-Methoxy-5–(4-(oxetan-3-yl)piperazin-1-yl)phenyl)-7–(4-methoxyphenyl)-7H-pyrrolo[2,3-d]pyrimidin-2-amine] | 36 nM | 212 nM | 39% |  |
| COc1ccc(-n2ccc3cnc(Nc4cccc(-c5ccccc5)c4)nc32)cc1 [Compound 4, N-([1,1′-Biphenyl]-3-yl)-7–(4-methoxyphenyl)-7H-pyrrolo[2,3-d]pyrimidin-2-amine] |  |  | 12% | IC50 (MERTK; [2]): > 3000 nM; IC50 (AXL; Table 1, mean values): > 3000 nM |
| COc1cc(Nc2ncc3ccn(-c4nccs4)c3n2)cc(N2CCC(N3CCCC3)CC2)c1 [Compound 35, N-(3-Methoxy-5–(4-(pyrrolidin-1-yl)piperidin-1-yl)phenyl)-7-(thiazol-2-yl)-7H-pyrrolo[2,3-d]pyrimidin-2-amine] |  |  | 16% | IC50 (MERTK; [3]): 64 nM; IC50 (AXL; Table 3): 247 nM |
| COc1ccc(-n2ccc3cnc(Nc4cc(CN5CCN(C)CC5)cc(OC)c4)nc32)cc1 [Compound 26, N-(3-Methoxy-5-((4-methylpiperazin-1-yl)methyl)phenyl)-7–(4-methoxyphenyl)-7H-pyrrolo[2,3-d]pyrimidin-2-amine] | 4 nM | 18 nM | 92% |  |
| COc1ccc(-n2ccc3cnc(Nc4ccc(NC5CCN(C)CC5)c(OC)c4)nc32)cc1 [Compound 17, 2-Methoxy-N4-(7–(4-methoxyphenyl)-7H-pyrrolo[2,3-d]pyrimidin-2-yl)-N1-(1-methylpiperidin-4-yl)benzene-1,4-diamine] | 10 nM | 199 nM | 37% |  |
| COc1cc(Nc2ncc3ccn([C@H]4CC[C@H](O)CC4)c3n2)cc(N2CCC(N3CCCC3)CC2)c1 [Compound 36, (1r,4r)-4–(2-((3-Methoxy-5–(4-(pyrrolidin-1-yl)piperidin-1-yl)phenyl)amino)-7H-pyrrolo[2,3-d]pyrimidin-7-yl)cyclohexanol] |  |  |  | IC50 (MERTK; [3]): 484 nM; IC50 (AXL; Table 3): 2020 nM; %Inhibition at 1 µM TYRO3 (TYRO3; Table 3, 1 µM, Km ATP): 55% |
| COc1ccc(-n2ccc3cnc(Nc4ccccc4)nc32)cc1 [Compound 3, 7–(4-Methoxyphenyl)-N-phenyl-7H-pyrrolo[2,3-d]pyrimidin-2-amine] |  |  | 44% | IC50 (MERTK; [2]): 95 nM; IC50 (AXL; Table 1, mean values): 751 nM |
| COc1ccc(-n2ccc3cnc(Nc4cc(OC)cc(N5CCC(C)(N6CCCC6)CC5)c4)nc32)cc1 [Compound 28, N-(3-Methoxy-5–(4-methyl-4-(pyrrolidin-1-yl)piperidin-1-yl)phenyl)-7–(4-methoxyphenyl)-7H-pyrrolo[2,3-d]pyrimidin-2-amine] | 7 nM | 32 nM | 72% |  |
| COc1ccc(-n2ccc3cnc(Nc4ccc(N5CCN(C)CC5)c(OC)c4)nc32)cc1 [Compound 16, N-(3-Methoxy-4–(4-methylpiperazin-1-yl)phenyl)-7–(4-methoxyphenyl)-7H-pyrrolo[2,3-d]pyrimidin-2-amine] | 15 nM | 104 nM | 27% | fold decreased IC50 for Mer compared to 2 (MERTK; relative to compound 2): 2.6 fold; fold decreased IC50 for Axl compared to 2 (AXL; relative to compound 2): 12 fold |
| COc1ccc(-n2ccc3cnc(Nc4cc(OC)cc(N5CCN(C)CC5)c4)nc32)cc1 [Compound 25, N-(3-Methoxy-5–(4-methylpiperazin-1-yl)phenyl)-7–(4-methoxyphenyl)-7H-pyrrolo[2,3-d]pyrimidin-2-amine] | 2 nM | 17 nM | 86% |  |
| COc1ccc(-n2ccc3cnc(Nc4cccc(OC)c4)nc32)cc1 [Compound 2, N-(3-Methoxyphenyl)-7–(4-methoxyphenyl)-7H-pyrrolo[2,3-d]pyrimidin-2-amine] |  |  | 38% | IC50 (MERTK; [2]): 39 nM; IC50 (AXL; Table 1, mean values): 1240 nM |
| COc1ccc(-n2ccc3cnc(N4CCN(C)CC4)nc32)cc1 [Compound 5, 7–(4-Methoxyphenyl)-2–(4-methylpiperazin-1-yl)-7H-pyrrolo[2,3-d]pyrimidine] |  |  | 0% | IC50 (MERTK; [2]): > 1000 nM; IC50 (AXL; Table 1, mean values): > 1000 nM |
| COc1ccc(-n2ccc3cnc(Nc4cc(OC)cc(N5CCCC(N6CCCC6)C5)c4)nc32)cc1 (stereo not shown) [Compound 29, N-(3-Methoxy-5–(3-(pyrrolidin-1-yl)piperidin-1-yl)phenyl)-7–(4-methoxyphenyl)-7H-pyrrolo[2,3-d]pyrimidin-2-amine] | 31 nM | 31 nM | 49% |  |
| COc1cc(Nc2ncc3ccn(-c4ccccc4)c3n2)cc(N2CCC(N3CCCC3)CC2)c1 [Compound 34, N-(3-Methoxy-5–(4-(pyrrolidin-1-yl)piperidin-1-yl)phenyl)-7-phenyl-7H-pyrrolo[2,3-d]pyrimidin-2-amine] |  |  | 35% | IC50 (MERTK; [3]): 17 nM; IC50 (AXL; Table 3): 48 nM |
| COc1ccc(-n2ccc3cnc(Nc4cc(OC)cc(N5CCC6(CCCO6)CC5)c4)nc32)cc1 [Compound 32, N-(3-Methoxy-5–(1-oxa-8-azaspiro[4.5]decan-8-yl)phenyl)-7–(4-methoxyphenyl)-7H-pyrrolo[2,3-d]pyrimidin-2-amine] |  | 288 nM | 0% |  |
| COc1ccc(-n2ccc3cnc(Nc4ccc(N5CCC(N(C)C)C5)c(OC)c4)nc32)cc1 (stereo not shown) [Compound 18, N-(4–(3-(Dimethylamino)pyrrolidin-1-yl)-3-methoxyphenyl)-7–(4-methoxyphenyl)-7H-pyrrolo[2,3-d]pyrimidin-2-amine] | 46 nM | 175 nM | 30% |  |

From article PMC7534383, “Structure-activity relationship of 7-aryl-2-anilino-pyrrolopyrimidines as Mer and Axl tyrosine kinase inhibitors” (Journal of Enzyme Inhibition and Medicinal Chemistry, 2020)
